Target: T1, Human thrombin (Homo sapiens, UniProt P00734)
T1 construct: purchased Haematologic Technologies Inc
Assay: Inhibition of the protease activity of thrombin (chromogenic substrate S-2238)
Format: biochemical
Conditions: inhibition of the protease activity of thrombin

IC50 | Compound
100 to 1000 nM | COc1ccccc1C(=O)n1nc(-c2ccccn2)cc1NCc1ccoc1 [Cmpd 202, N-(furan-3-ylmethyl)-1-[(2-methoxyphenyl)carbonyl]-3-(pyridin-2-yl)-1H-pyrazol-5-amine]
> 1000 nM | Fc1ccc(CNc2nc(-c3ccccn3)nn2CCc2ccccc2)cc1 [Cmpd 203, N-[(4-fluorophenyl)methyl]-1-(2-phenylethyl)-3-(pyridin-2-yl)-1H-1,2,4-triazol-5-amine]
> 1000 nM | Fc1ccc(CNc2nc(-c3ccccn3)n(CCc3ccccc3)n2)cc1 [Cmpd 204, N-[(4-fluorophenyl)methyl]-1-(2-phenylethyl)-5-(pyridin-2-yl)-1H-1,2,4-triazol-3-amine]
100 to 1000 nM | COc1cc(C)ccc1C(=O)n1nc(-c2ccccc2)nc1NCc1ccc(F)cc1 [Cmpd 205, N-[(4-fluorophenyl)methyl]-1-[(2-methoxy-4-methylphenyl)carbonyl]-3-phenyl-1H-1,2,4-triazol-5-amine]
< 100 nM | COc1ccccc1C(=O)n1nc(-c2ccncc2)nc1NCc1ccc(F)cc1 [Cmpd 207, N-[(4-fluorophenyl)methyl]-1-[(2-methoxyphenyl)carbonyl]-3-(pyridin-4-yl)-1H-1,2,4-triazol-5-amine]
> 1000 nM | COc1ccccc1C(=O)n1nc(-c2ccccc2)cc1NCc1ccc(F)cc1 [Cmpd 208, N-[(4-fluorophenyl)methyl]-1-[(2-methoxyphenyl)carbonyl]-3-phenyl-1H-pyrazol-5-amine]
100 to 1000 nM | Cc1ccccc1C(=O)n1nc(-c2ccccc2)nc1NCc1ccc(F)cc1 [Cmpd 209, N-[(4-fluorophenyl)methyl]-1-[(2-methylphenyl)carbonyl]-3-phenyl-1H-1,2,4-triazol-5-amine]
< 100 nM | O=C(c1ccco1)n1nc(-c2ccccn2)nc1NCc1ccc(F)cc1 [Cmpd 210, N-[(4-fluorophenyl)methyl]-1-[(furan-2-yl)carbonyl]-3-(pyridin-2-yl)-1H-1,2,4-triazol-5-amine]
< 100 nM | O=C(c1ccco1)n1nc(-c2ccncc2)nc1NCc1ccc(F)cc1 [Cmpd 211, N-[(4-fluorophenyl)methyl]-1-[(furan-2-yl)carbonyl]-3-(pyridin-4-yl)-1H-1,2,4-triazol-5-amine]
< 100 nM | O=C(c1ccoc1)n1nc(-c2ccccn2)nc1NCc1ccc(F)cc1 [Cmpd 212, N-[(4-fluorophenyl)methyl]-1-[(furan-3-yl)carbonyl]-3-(pyridin-2-yl)-1H-1,2,4-triazol-5-amine]
< 100 nM | O=C(c1ccoc1)n1nc(-c2cccnc2)nc1NCc1ccc(F)cc1 [Cmpd 213, N-[(4-fluorophenyl)methyl]-1-[(furan-3-yl)carbonyl]-3-(pyridin-3-yl)-1H-1,2,4-triazol-5-amine]
< 100 nM | O=C(c1ccoc1)n1nc(-c2ccncc2)nc1NCc1ccc(F)cc1 [Cmpd 214, N-[(4-fluorophenyl)methyl]-1-[(furan-3-yl)carbonyl]-3-(pyridin-4-yl)-1H-1,2,4-triazol-5-amine]
> 1000 nM | O=C(N1CCCCC1)n1nc(-c2cccnc2)nc1NCc1ccc(F)cc1 [Cmpd 215, N-[(4-fluorophenyl)methyl]-1-[(piperidin-1-yl)carbonyl]-3-(pyridin-3-yl)-1H-1,2,4-triazol-5-amine]
> 1000 nM | CCCn1nc(-c2ccccn2)nc1NCc1ccc(F)cc1 [Cmpd 216, N-[(4-fluorophenyl)methyl]-1-propyl-3-(pyridin-2-yl)-1H-1,2,4-triazol-5-amine]
> 1000 nM | CCCn1nc(NCc2ccc(F)cc2)nc1-c1ccccn1 [Cmpd 217, N-[(4-fluorophenyl)methyl]-1-propyl-5-(pyridin-2-yl)-1H-1,2,4-triazol-3-amine]
> 1000 nM | Cc1c(-c2ccccc2)n[nH]c1N(Cc1ccc(F)cc1)C(=O)C(C)(C)C [Cmpd 218, N-[(4-fluorophenyl)methyl]-2,2-dimethyl-N-(4-methyl-3-phenyl-1H-pyrazol-5-yl)propanamide]
< 100 nM | O=C(c1ccsc1)n1nc(-c2ccccn2)nc1NCc1ccc(F)cc1 [Cmpd 219, N-[(4-fluorophenyl)methyl]-3-(pyridin-2-yl)-1-[(thiophen-3-yl)carbonyl]-1H-1,2,4-triazol-5-amine]
< 100 nM | O=C(c1ccsc1)n1nc(-c2cccnc2)nc1NCc1ccc(F)cc1 [Cmpd 220, N-[(4-fluorophenyl)methyl]-3-(pyridin-3-yl)-1-[(thiophen-3-yl)carbonyl]-1H-1,2,4-triazol-5-amine]
100 to 1000 nM | O=C(c1cccs1)n1nc(-c2ccncc2)nc1NCc1ccc(F)cc1 [Cmpd 221, N-[(4-fluorophenyl)methyl]-3-(pyridin-4-yl)-1-[(thiophen-2-yl)carbonyl]-1H-1,2,4-triazol-5-amine]
< 100 nM | O=C(c1ccsc1)n1nc(-c2ccccc2)nc1NCc1ccc(F)cc1 [Cmpd 222, N-[(4-fluorophenyl)methyl]-3-phenyl-1-[(thiophen-3-yl)carbonyl]-1H-1,2,4-triazol-5-amine]
> 1000 nM | O=C(c1cn(-c2ccccn2)nc1NCc1ccc(F)cc1)N1CCCCC1 [Cmpd 225, N-[(4-fluorophenyl)methyl]-4-[(piperidin-1-yl)carbonyl]-1-(pyridin-2-yl)-1H-pyrazol-3-amine]
> 1000 nM | COc1ccc(CNc2nc(-c3ccccn3)nn2C(=O)c2cccs2)cc1 [Cmpd 226, N-[(4-methoxyphenyl)methyl]-3-(pyridin-2-yl)-1-[(thiophen-2-yl)carbonyl]-1H-1,2,4-triazol-5-amine]
100 to 1000 nM | COc1ccc(CNc2nc(-c3ccccn3)nn2C(=O)c2ccsc2)cc1 [Cmpd 227, N-[(4-methoxyphenyl)methyl]-3-(pyridin-2-yl)-1-[(thiophen-3-yl)carbonyl]-1H-1,2,4-triazol-5-amine]
> 1000 nM | COc1ccc(CNc2nc(-c3cccnc3)nn2C(=O)c2ccsc2)cc1 [Cmpd 228, N-[(4-methoxyphenyl)methyl]-3-(pyridin-3-yl)-1-[(thiophen-3-yl)carbonyl]-1H-1,2,4-triazol-5-amine]
> 1000 nM | COc1ccc(CNc2nc(-c3ccncc3)nn2C(=O)c2cccs2)cc1 [Cmpd 229, N-[(4-methoxyphenyl)methyl]-3-(pyridin-4-yl)-1-[(thiophen-2-yl)carbonyl]-1H-1,2,4-triazol-5-amine]
100 to 1000 nM | COc1ccc(CNc2nc(-c3ccncc3)nn2C(=O)c2ccsc2)cc1 [Cmpd 230, N-[(4-methoxyphenyl)methyl]-3-(pyridin-4-yl)-1-[(thiophen-3-yl)carbonyl]-1H-1,2,4-triazol-5-amine]
> 1000 nM | O=C(c1cccc2c1OC(F)(F)O2)n1nc(-c2ccccn2)nc1NCc1ccccc1 [Cmpd 231, N-benzyl-1-[(2,2-difluoro-2H-1,3-benzodioxol-4-yl)carbonyl]-3-(pyridin-2-yl)-1H-1,2,4-triazol-5-amine]
< 100 nM | O=C(c1cccc2c1OCCO2)n1nc(-c2ccccn2)nc1NCc1ccccc1 [Cmpd 232, N-benzyl-1-[(2,3-dihydro-1,4-benzodioxin-5-yl)carbonyl]-3-(pyridin-2-yl)-1H-1,2,4-triazol-5-amine]
< 100 nM | COc1cccc(C(=O)n2nc(-c3ccccn3)nc2NCc2ccccc2)c1OC [Cmpd 233, N-benzyl-1-[(2,3-dimethoxyphenyl)carbonyl]-3-(pyridin-2-yl)-1H-1,2,4-triazol-5-amine]

— patent US20170326125A1, “MULTISUBSTITUTED AROMATIC COMPOUNDS AS INHIBITORS OF THROMBIN” (VERSEON CORPORATION, priority 2016, published 2017)
